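Protocol summary: plate cells (96-well), add compound at 5 concentrations, incubate 48 h, interpolate endpoints linearly. The concentration for 50% growth inhibition is given as GI50. TGI marks complete inhibition of growth.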
Experiments:
Test in all cases: NCI tumour cell line growth inhibition, 48 h; in the data active = GI50 below about 0.43 µM; inactive = the rest
786-0 renal = test system: 786-0 renal
A498 renal = test system: A498 renal
A549 NSCLC = test system: A549 NSCLC
ACHN renal = test system: ACHN renal
BT-549 breast = test system: BT-549 breast
CAKI-1 renal = test system: CAKI-1 renal
CCRF-CEM leukemia = test system: CCRF-CEM leukemia
COLO 205 colon = test system: COLO 205 colon
DU-145 prostate = test system: DU-145 prostate
EKVX NSCLC = test system: EKVX NSCLC
HCC-2998 colon = test system: HCC-2998 colon
HCT-116 colon = test system: HCT-116 colon
HCT-15 colon = test system: HCT-15 colon
HL-60(TB) leukemia = test system: HL-60(TB) leukemia
HOP-62 NSCLC = test system: HOP-62 NSCLC
HOP-92 NSCLC = test system: HOP-92 NSCLC
HS 578T breast = test system: HS 578T breast
HT29 colon = test system: HT29 colon
IGROV1 ovarian = test system: IGROV1 ovarian
K-562 leukemia = test system: K-562 leukemia
KM12 colon = test system: KM12 colon
LOX IMVI melanoma = test system: LOX IMVI melanoma
M14 melanoma = test system: M14 melanoma
MALME-3M melanoma = test system: MALME-3M melanoma
MCF7 breast = test system: MCF7 breast
MDA-MB-231 breast = test system: MDA-MB-231 breast
MDA-MB-435 = test system: MDA-MB-435
MDA-MB-468 breast = test system: MDA-MB-468 breast
MOLT-4 leukemia = test system: MOLT-4 leukemia
NCI-H226 lung = test system: NCI-H226 lung
NCI-H23 lung = test system: NCI-H23 lung
NCI-H460 lung = test system: NCI-H460 lung
NCI-H522 lung = test system: NCI-H522 lung
OVCAR-3 ovarian = test system: OVCAR-3 ovarian
OVCAR-4 ovarian = test system: OVCAR-4 ovarian
OVCAR-5 ovarian = test system: OVCAR-5 ovarian
OVCAR-8 ovarian = test system: OVCAR-8 ovarian
PC-3 prostate = test system: PC-3 prostate
RPMI-8226 leukemia = test system: RPMI-8226 leukemia
RXF 393 renal = test system: RXF 393 renal
SF-268 CNS = test system: SF-268 CNS
SF-295 CNS = test system: SF-295 CNS
SF-539 CNS = test system: SF-539 CNS
SK-MEL-2 melanoma = test system: SK-MEL-2 melanoma
SK-MEL-28 melanoma = test system: SK-MEL-28 melanoma
SK-MEL-5 melanoma = test system: SK-MEL-5 melanoma
SN12C renal = test system: SN12C renal
SNB-19 CNS = test system: SNB-19 CNS
SNB-75 CNS = test system: SNB-75 CNS
SR leukemia = test system: SR leukemia
T-47D breast = test system: T-47D breast
TK-10 renal = test system: TK-10 renal
U251 CNS = test system: U251 CNS
UO-31 renal = test system: UO-31 renal

COC[C@@H](CC(C)C)N=C1NC(=O)/C(=C/c2ccc3ncoc3c2)N1
11.4 µM: TGI (BT-549 breast)
50.5 µM: TGI (MALME-3M melanoma)
inactive: GI50 (786-0 renal) 5.31 µM | GI50 (A498 renal) 1.34 µM | GI50 (A549 NSCLC) 2.65 µM | GI50 (ACHN renal) 2.89 µM | GI50 (BT-549 breast) 2.44 µM | GI50 (CAKI-1 renal) 2.59 µM | GI50 (CCRF-CEM leukemia) 2.6 µM | GI50 (COLO 205 colon) 2.23 µM | GI50 (DU-145 prostate) 3.74 µM | GI50 (EKVX NSCLC) 3.55 µM | GI50 (HCC-2998 colon) 7.43 µM | GI50 (HCT-116 colon) 2.13 µM | GI50 (HCT-15 colon) 2.43 µM | GI50 (HL-60(TB) leukemia) 3.48 µM | GI50 (HOP-62 NSCLC) 2.89 µM | GI50 (HOP-92 NSCLC) 2.58 µM | GI50 (HS 578T breast) 2.31 µM | GI50 (HT29 colon) 4.3 µM | GI50 (IGROV1 ovarian) 2.73 µM | GI50 (K-562 leukemia) 2.92 µM | GI50 (KM12 colon) 3.39 µM | GI50 (LOX IMVI melanoma) 2.87 µM | GI50 (M14 melanoma) 5.64 µM | GI50 (MALME-3M melanoma) 3.06 µM | GI50 (MCF7 breast) 2.69 µM | GI50 (MDA-MB-231 breast) 5.64 µM | GI50 (MDA-MB-435) 4.33 µM | GI50 (MDA-MB-468 breast) 1.35 µM | GI50 (MOLT-4 leukemia) 4.27 µM | GI50 (NCI-H226 lung) 2.18 µM | GI50 (NCI-H23 lung) 2.21 µM | GI50 (NCI-H460 lung) 2.67 µM | GI50 (NCI-H522 lung) 2.13 µM | GI50 (OVCAR-3 ovarian) 1.08 µM | GI50 (OVCAR-4 ovarian) 10.2 µM | GI50 (OVCAR-5 ovarian) 3.52 µM | GI50 (OVCAR-8 ovarian) 2.88 µM | GI50 (PC-3 prostate) 5.72 µM | GI50 (RPMI-8226 leukemia) 3.19 µM | GI50 (RXF 393 renal) 2.72 µM | GI50 (SF-268 CNS) 3.65 µM | GI50 (SF-295 CNS) 3.65 µM | GI50 (SF-539 CNS) 0.618 µM | GI50 (SK-MEL-2 melanoma) 1.93 µM | GI50 (SK-MEL-28 melanoma) 2.66 µM | GI50 (SK-MEL-5 melanoma) 2.44 µM | GI50 (SN12C renal) 3.12 µM | GI50 (SNB-19 CNS) 1.99 µM | GI50 (SR leukemia) 2.87 µM | GI50 (T-47D breast) 2.2 µM | GI50 (TK-10 renal) 3.24 µM | GI50 (U251 CNS) 2.72 µM | GI50 (UO-31 renal) 2.67 µM
8.52 µM: TGI (NCI-H522 lung)
4.01 µM: TGI (SNB-75 CNS)
12 µM: TGI (SK-MEL-5 melanoma)
6.99 µM: TGI (MDA-MB-468 breast)
8.06 µM: TGI (COLO 205 colon)
6.88 µM: TGI (A498 renal)
active: GI50 (SNB-75 CNS) 0.0317 µM
9.96 µM: TGI (T-47D breast)
9.22 µM: TGI (HS 578T breast)
23.4 µM: TGI (HL-60(TB) leukemia)
4.36 µM: TGI (SK-MEL-2 melanoma)
4.69 µM: TGI (OVCAR-3 ovarian)
> 100 µM: TGI (786-0 renal) | TGI (A549 NSCLC) | TGI (ACHN renal) | TGI (CAKI-1 renal) | TGI (DU-145 prostate) | TGI (EKVX NSCLC) | TGI (HCC-2998 colon) | TGI (HCT-116 colon) | TGI (HCT-15 colon) | TGI (HOP-62 NSCLC) | TGI (IGROV1 ovarian) | TGI (K-562 leukemia) | TGI (KM12 colon) | TGI (LOX IMVI melanoma) | TGI (M14 melanoma) | TGI (MCF7 breast) | TGI (MDA-MB-231 breast) | TGI (MDA-MB-435) | TGI (MOLT-4 leukemia) | TGI (NCI-H226 lung) | TGI (NCI-H460 lung) | TGI (OVCAR-4 ovarian) | TGI (OVCAR-5 ovarian) | TGI (OVCAR-8 ovarian) | TGI (PC-3 prostate) | TGI (RPMI-8226 leukemia) | TGI (SF-295 CNS) | TGI (SN12C renal) | TGI (SNB-19 CNS) | TGI (SR leukemia) | TGI (TK-10 renal) | TGI (U251 CNS)
9.48 µM: TGI (HOP-92 NSCLC)
9.18 µM: TGI (RXF 393 renal)
8.79 µM: TGI (SK-MEL-28 melanoma)
9.93 µM: TGI (CCRF-CEM leukemia)
24.1 µM: TGI (HT29 colon)
57.3 µM: TGI (SF-268 CNS)
8.75 µM: TGI (NCI-H23 lung)
35.3 µM: TGI (UO-31 renal)
7.11 µM: TGI (SF-539 CNS)

— PubChem BioAssay (NCI)
